Results on twelve molecules are retold here after paper PMC4813177, “Molecular Recognition of the Catalytic Zinc(II) Ion in MMP-13: Structure-Based Evolution of an Allosteric Inhibitor to Dual Binding Mode Inhibitors with Improved Lipophilic Ligand Efficiencies” (International Journal of Molecular Sciences, 2016).

For this data set, the target named is T1, MMP-13 (Homo sapiens, UniProt P45452).
T1 construct: purchased Reaction Biology Corporation, Malvern, PA, USA (contract assay service)
Nature of the data set: MMP-13 in vitro inhibition assay (FRET peptide substrate). Conditions: for LE (Ligand Efficiency): 1.4(−logIC50)/N, N = number of non-hydrogen atoms; for LLE (lipophilic ligand efficiency): LLE = pIC50 - clogP; for remaining activity at 10 µM: at 10 μM inhibitor concentration, read-out: % Activity (remaining enzyme activity); for remaining activity at 10 µM / IC50: triplicate; for IC50: 10 concentrations starting at 10 μM. The data set is classed as biochemical. The method, then: Consecutively the synthesized compounds were tested for their inhibition activity against MMP-13 in in vitro assays. The values are averaged over triplicate determinations (Table 1).
The substrate used for the determinations was the (5-FAM/QXLTM) FRET peptide. The buffer consisted of 50 mM HEPES at pH 7.5 with 10 mM CaCl2 and 0.01% Brij-35. 0.1 mg/mL BSA was added before use. As a control inhibitor GM6001 was used.

On to `O=C(Cc1cccc(OCCCCCO)c1)Nc1ccc2c(c1)C(=O)N(Cc1ccccc1)C2=O` [Compound 2, N-(2-benzyl-1,3-dioxo-2,3-dihydro-1H-isoindol-5-yl)-2-{3-[(5-hydroxypentyl)oxy]phenyl}acetamide], for which the “LE (Ligand Efficiency)” value came out at 0.24, the “LLE (lipophilic ligand efficiency)” value was found to be 1.53, the remaining activity at 10 µM was determined as 9.1 ± 0.9% and the IC50 came to 822 ± 210 nM.
As to `O=C(O)CCCCCOc1cccc(CC(=O)Nc2ccc3c(c2)C(=O)N(Cc2ccccc2)C3=O)c1` [Compound 16, 6-(3-{[(2-benzyl-1,3-dioxo-2,3-dihydro-1H-isoindol-5-yl)carbamoyl]methyl}phenoxy)hexanoic acid], the “LE (Ligand Efficiency)” value was determined as 0.25, the “LLE (lipophilic ligand efficiency)” value is 1.70, the remaining activity at 10 µM came to 2.6 ± 0.3% and the IC50 stood at 280 ± 40 nM.
For `CS(=O)(=O)NC(=O)CCCCOc1cccc(CC(=O)Nc2ccc3c(c2)C(=O)N(Cc2ccccc2)C3=O)c1` [Compound 4, 5-(3-{[(2-benzyl-1,3-dioxo-2,3-dihydro-1H-isoindol-5-yl)carbamoyl]methyl}phenoxy)-N-methanesulfonylpentanamide], the “LE (Ligand Efficiency)” value was 0.21, the “LLE (lipophilic ligand efficiency)” value is given as 2.53, the remaining activity at 10 µM worked out at 13.8 ± 1.4% and the IC50 came out at 767 ± 80 nM.
As to `O=C(O)CCCCOc1cccc(CC(=O)Nc2ccc3c(c2)C(=O)N(Cc2ccccc2)C3=O)c1` [Compound 3, 5-(3-{[(2-benzyl-1,3-dioxo-2,3-dihydro-1H-isoindol-5-yl)carbamoyl]methyl}phenoxy)pentanoic acid], the “LE (Ligand Efficiency)” value amounted to 0.27, the “LLE (lipophilic ligand efficiency)” value is 2.46, the remaining activity at 10 µM worked out at 2.4 ± 0.1% and the IC50 was 134 ± 40 nM.
`CS(=O)(=O)NC(=O)CCOc1cccc(CC(=O)Nc2ccc3c(c2)C(=O)N(Cc2ccccc2)C3=O)c1` [Compound 17, 3-(3-{[(2-benzyl-1,3-dioxo-2,3-dihydro-1H-isoindol-5-yl)carbamoyl]methyl}phenoxy)-N-methanesulfonylpropanamide]: the remaining activity at 10 µM was 30.5 ± 0.8%.
For the molecule `CNC(=O)CCCCOc1cccc(CC(=O)Nc2ccc3c(c2)C(=O)N(Cc2ccccc2)C3=O)c1` [Compound 5, 5-(3-{[(2-benzyl-1,3-dioxo-2,3-dihydro-1H-isoindol-5-yl)carbamoyl]methyl}phenoxy)-N-methylpentanamide], the “LE (Ligand Efficiency)” value is 0.25, the “LLE (lipophilic ligand efficiency)” value came to 2.45, the remaining activity at 10 µM turned out to be 6.7 ± 0.5% and the half-inhibitory concentration (IC50) came to 328 ± 50 nM.
Consider `O=C(Cc1cccc(OCCCO)c1)Nc1ccc2c(c1)C(=O)N(Cc1ccccc1)C2=O` [Compound 11, N-(2-benzyl-1,3-dioxo-2,3-dihydro-1H-isoindol-5-yl)-2-[3-(3-hydroxypropoxy)phenyl]acetamide], for which the “LE (Ligand Efficiency)” value came to 0.26, the “LLE (lipophilic ligand efficiency)” value is 2.55, the remaining activity at 10 µM worked out at 7.9 ± 0.4% and the IC50 came out at 586 ± 130 nM.
Take `O=C(Cc1cccc(OCCCCCCO)c1)Nc1ccc2c(c1)C(=O)N(Cc1ccccc1)C2=O` [Compound 13, N-(2-benzyl-1,3-dioxo-2,3-dihydro-1H-isoindol-5-yl)-2-{3-[(6-hydroxyhexyl)oxy]phenyl}acetamide]: the remaining activity at 10 µM was 33 ± 2.9%.
With `CS(=O)(=O)NC(=O)CCCOc1cccc(CC(=O)Nc2ccc3c(c2)C(=O)N(Cc2ccccc2)C3=O)c1` [Compound 18, 4-(3-{[(2-benzyl-1,3-dioxo-2,3-dihydro-1H-isoindol-5-yl)carbamoyl]methyl}phenoxy)-N-methanesulfonylbutanamide], the “LE (Ligand Efficiency)” value was determined as 0.22, the “LLE (lipophilic ligand efficiency)” value turned out to be 2.91, the remaining activity at 10 µM turned out to be 11.2 ± 0.3% and the IC50 stood at 896 ± 60 nM.
The matching figures for `O=C(O)CCCOc1cccc(CC(=O)Nc2ccc3c(c2)C(=O)N(Cc2ccccc2)C3=O)c1` [Compound 15, 4-(3-{[(2-benzyl-1,3-dioxo-2,3-dihydro-1H-isoindol-5-yl)carbamoyl]methyl}phenoxy)butanoic acid]: 0.24, 2.16, 4.6 ± 0.6% and 777 ± 50 nM.
For the molecule `O=C(Cc1cccc(OCCCCO)c1)Nc1ccc2c(c1)C(=O)N(Cc1ccccc1)C2=O` [Compound 12, N-(2-benzyl-1,3-dioxo-2,3-dihydro-1H-isoindol-5-yl)-2-[3-(4-hydroxybutoxy)phenyl]acetamide], the “LE (Ligand Efficiency)” value is listed as 0.26, the “LLE (lipophilic ligand efficiency)” value was 2.22, the remaining activity at 10 µM was determined as 7.6 ± 0.5% and inhibition was half-maximal at 454 ± 200 nM (IC50).
For `O=C(O)CCOc1cccc(CC(=O)Nc2ccc3c(c2)C(=O)N(Cc2ccccc2)C3=O)c1` [Compound 14, 3-(3-{[(2-benzyl-1,3-dioxo-2,3-dihydro-1H-isoindol-5-yl)carbamoyl]methyl}phenoxy)propanoic acid], the remaining activity at 10 µM was 15.4 ± 0.3%.
